# Patent publication US20250066417A9, “NEW PEPTIDE-BASED DIAGNOSTIC AND THERAPEUTIC AGENTS” (ENLITISA (SHANGHAI) PHARMACEUTICAL CO., LTD., priority 2021, published 2025)
# Where “and” joins values, the source holds several entries; their conditions need not be identical. Equal values may be shown once. Bridges are numbered along the chain shown (N, C = ends). Roman numbers before positions name the chains, in order. Where no end group is shown, it is not given here. [ ]: non-standard residue; d: D form. Dopa = N[C@@H](Cc1ccc(O)c(O)c1)C(=O)O; ACP = 6-aminocaproic acid (linker); Hyp = O=C(O)[C@@H]1C[C@@H](O)CN1
# Tests used:
# [1] = Pharmacokinetic study of tritium-labelled peptide after rectal administration (total radioactivity by liquid scintillation); settings: for Total radioactivity at 168 h (Cmax %): 168 h as % of Cmax
# Experimental: 1 mL of a pH 5.0 acetic acid solution was added to the product of Example 3 above with even mixing. 0.952 mL of the resultant solution was added to a 40 mL glass bottle.
# About 200 μL of 0.5% Evans Blue aqueous solution was added followed by even mixing. […] 30 Sprague-Dawley rats, half male and half female (Beijing Vital River Laboratory Animal Technology Co., Ltd.) were quarantined and acclimatised in polycarbonate cages for 5 to 7 days. The environmental conditions were controlled at room temperature of between 20° C. and 26° C., with a relative humidity of between 40% and 70%, with 12 hours of alternating lightness and darkness.
# The body weights required for randomization were obtained on Day 1 (before dosing). After randomization, rats were assigned to one of five groups (three animals per sex in each group).
# After weighing, animals were anesthetized by Intramuscular Injection of Zoletil-50. The animals were placed on their backs. Stools at the end of their rectums were gently squeezed out, and the skin around anus was disinfected with 75% alcohol.
# A closed catheter (No. 8, double lumen with guide wire) was Inserted Into the anus of the rats to a depth of about 3 cm, and then a gastric lavage needle was slowly Inserted to a depth of at least 3.5 cm. After lifting the perlanal skin, fixing the catheter and the gavage needle, about 1 mL of water was Injected Into the bladder cavity of the syringe guide catheter to make it expand. Then the gel comprising the title compound was given quickly through the needle.
# After administration, the catheter was ligated and fixed by wrapping tape around the root of the rats' tails. The catheter remained in the rectum for about 4 hours before removal.
# Blood, rectal contents and rectal mucosa samples were collected. All centrifuge tubes coated with EDTA-K2 were stored either in a refrigerator (at 2 to 8° C.) or In a cooler filled with Ice, and were protected from light prior to use. The collected blood was transferred Into the centrifuge tubes and stored in an Ice box protected from light after being mixed manually by reversing the tubes at least 5 times.
# Then, the tubes were centrifuged at 1800 g for 10 minutes at between 2 and 8° C., 2 hours after blood collection. After centrifugation, the collected plasma samples were transferred Into newly-labeled centrifuge tubes and aliquoted Into two sets, stored ay below −70° C.
# Plasma, rectal contents and rectal mucosa samples were analyzed using a liquid scintillation counter, and the radioactive concentration was calculated according to the actual sampling volume. Half-lives were also calculated using WinNonlin software. MS Excel was used for data statistical analysis, including mean, standard deviation (SD), and coefficient of variation (CV), etc.
# Total radioactivity unit (ng Eq./g)=DPM/g÷S.A. ×1000, S.A.=144,300 DPM/μg
# [2] = Fluorescence stability of the 0.05 mg/mL aqueous solution at room temperature; type: physicochemical; settings: 0.05 mg/mL in distilled water, after one hour at room temperature
# Experimental: (§1) The title compound of Example 1 above was dissolved in distilled water to make a 0.05 mg/mL solution. The fluorescence absorption of the solution was scanned at 520 nm using a Hitachi F-7000 fluorescence spectrophotometer with an Interval of 20 nm. The optimal excitation wavelength was 450 nm and the maximum absorption wavelength was 521 nm.
# rat rectum [3] = assay: In vivo adhesive study: fluorescence imaging of rat rectum after rectal injection
# Experimental: as §1
# In an in vivo study, four rats were anesthetized by intraperitoneal injection of 5% chloral hydrate at a dose of 7 ml/kg. 1 mL of the solution of test compound was Injected Into the rectum using a 2 mL syringe. Swallowtail clamps were used to seal the anus to keep the liquid in rectum for about 2 hours. Rats were sacrificed at 2 hours, 4 hours, 8 hours and 24 hours after injection of test compound.
# (§2) In a separate ex vivo study, rats were anesthetized and their abdominal cavities opened. 8 cm of the rectum was removed and cut Into 2 pieces, with fat and contents stripped. 1 mL of normal saline was used to flush the rectal cavities, which were then placed Into a constant humidity plate. 1 mL of the solution of test compound was Injected Into the rectum and ligated at both ends. Samples were taken at 0 hours, 0.5 hours, 1 hour and 2 hours for fluorescence imaging. A MZX81 fluorescence stereomicroscope was used for imaging (Guangzhou Micro-Shot Technology Co., Ltd).
# (§3) The fluorescence Images are show in FIG. 1 (in vivo study) and FIG. 2 (ex vivo study).
# rat rectum [4] = assay: Ex vivo adhesive study: fluorescence imaging of excised rat rectum; settings: rat rectum, 0, 0.5, 1 and 2 hours, FIG. 2
# Experimental: as §1, §2, §3
substance,measurement,setting,value
"I: AKPSY[Hyp]T[Dopa][Hyp]KKK-OH / II: AKPSY[Hyp]T[Dopa][Hyp]KK / III: AKPSY[Hyp]T[Dopa][Hyp]K / IV: AKPSY[Hyp]T[Dopa][Hyp]K (amide I:11-IV:C, I:12-II:C, II:11-III:C) [Example 3, ^3H-Labelled [(Ala-Lys-Pro-Ser-Tyr-Hyp-Thr-DOPA-Hyp-Lys)2-Lys]2-Lys]",radioactivity in rectal mucosa relative to rectal contents,[1]; 24 hours after administration,about 6.01 times
same,radioactivity in rectal mucosa relative to rectal contents,[1]; 72 hours after administration,~3.32 times
same,radioactivity in rectal mucosa relative to rectal contents,[1]; 168 hours,2.28 times
same,radioactivity concentration of rectal mucosa relative to plasma,[1]; one hour after rectal administration,1121 times
same,Total radioactivity,"[1]; plasma, 1 h, rectal 1.5 mg/100 μCi/kg, rats",47.8 ng Eq./g and 47.8 ± 12.2 ng Eq./g
same,Total radioactivity,"[1]; plasma, 6 h, rectal 1.5 mg/100 μCi/kg, rats",54.1 ng Eq./g and 54.1 ± 14.4 ng Eq./g
same,Total radioactivity,"[1]; plasma, 24 h, rectal 1.5 mg/100 μCi/kg, rats",18.6 ± 6.2 ng Eq./g
same,Total radioactivity,"[1]; plasma, 72 h, rectal 1.5 mg/100 μCi/kg, rats",15.2 ± 8.4 ng Eq./g
same,Total radioactivity,"[1]; plasma, 168 h, rectal 1.5 mg/100 μCi/kg, rats",13.3 ± 3.41 ng Eq./g
same,tolerability of the experimental dose,"[1]; rectal 1.5 mg/100 μCi/kg, rats",well tolerated
same,adverse reaction after administration,"[1]; rectal 1.5 mg/100 μCi/kg, rats, whole experiment",no obvious adverse reaction
same,time of highest total radioactivity after administration,[1]; rectal contents,1 h
same,Total radioactivity,"[1]; rectal contents, 1 h, rectal 1.5 mg/100 μCi/kg, rats",35322 ng Eq./g and 35322 ± 515 ng Eq./g
same,Total radioactivity,"[1]; rectal contents, 6 h, rectal 1.5 mg/100 μCi/kg, rats",21981 ± 153 ng Eq./g
same,Total radioactivity,"[1]; rectal contents, 24 h, rectal 1.5 mg/100 μCi/kg, rats",56.4 ± 54. ng Eq./g
same,average concentration at 24 hours as % of Cmax,[1]; rectal contents,~0.16%
same,Total radioactivity,"[1]; rectal contents, 72 h, rectal 1.5 mg/100 μCi/kg, rats",44.3 ± 27. ng Eq./g
same,Total radioactivity,"[1]; rectal contents, 168 h, rectal 1.5 mg/100 μCi/kg, rats",16.5 ng Eq./g and 16.5 ± 6.88 ng Eq./g
same,Total radioactivity at 168 h (Cmax %),[1]; rectal contents,0.05%
same,time of highest total radioactivity after administration,[1]; rectal mucosa,1 h
same,Total radioactivity,"[1]; rectal mucosa, 1 h, rectal 1.5 mg/100 μCi/kg, rats",53593 ng Eq./g and 53593 ± 472 ng Eq./g
same,radioactivity concentration of rectal mucosa relative to that at 1 h,"[1]; rectal mucosa, 6 h (11163 ng Eq./g)",about 20.83%
same,Total radioactivity,"[1]; rectal mucosa, 6 h, rectal 1.5 mg/100 μCi/kg, rats",11163 ng Eq./g and 11163 ± 702 ng Eq./g
same,Total radioactivity,"[1]; rectal mucosa, 24 h, rectal 1.5 mg/100 μCi/kg, rats",339 ng Eq./g and 339 ± 95. ng Eq./g
same,average concentration at 24 hours as % of Cmax,[1]; rectal mucosa,about 0.63%
same,Total radioactivity,"[1]; rectal mucosa, 72 h, rectal 1.5 mg/100 μCi/kg, rats",147 ng Eq./g and 147 ± 84. ng Eq./g
same,Total radioactivity,"[1]; rectal mucosa, 168 h, rectal 1.5 mg/100 μCi/kg, rats",37.6 ng Eq./g and 37.6 ± 10.2 ng Eq./g
same,Total radioactivity at 168 h (Cmax %),[1]; rectal mucosa,0.07%
same,gender differences in total radioactivity concentrations,"[1]; rectal mucosa, rectal contents and plasma, male vs female rats",no significant gender differences
[5-FITC-ACP-Ala-Lys-Pro-Ser-Tyr-Hyp-Thr-DOPA-Hyp-Lys)2-Lys]2-Lys ({5‑FITC-ACP}-AKPSY[Hyp]T[Dopa][Hyp]K; also: branched dendrimer: four peptide copies on a three-Lys core) [Example 1],fluorescence intensity (stability of test compound in solution),[2],did not change
same,adhesiveness of test compound to mucous,"rat rectum [3]; rat rectum, 2, 4, 8 and 24 hours after injection, FIG. 1",very stable
same,fluorescence intensity in the in vivo samples,"rat rectum [3]; rat rectum, even with constant fecal excretion",did not decrease significantly
same,adhesiveness of test compound to mucous,rat rectum [4],very stable
